Measured values: patent publication US20230130766A1 (SALK INSTITUTE FOR BIOLOGICAL STUDIES, priority 2020, published 2023)

Columns and labels:
Type in all cases: in vivo, nude mice
[1] = tested on: A549 cells; experiment: A549 xenograft large tumors, ULK inhibitor alone versus carboplatin; conditions: A549 large tumors; each Compound 14 cohort: 20 mg/kg twice daily, 30 mg/kg twice daily, 40 mg/kg once daily; 32 days
Description: A549 cells (5M cells) were injected bilaterally into the flanks of forty-six nude mice to create tumor xenografts in order to assess the efficacy of Compound 14 in treating larger non-small cell lung cancer tumors compared to carboplatin, the current standard of care therapy for non-small cell lung cancer. After 40 days of letting tumor cells proliferate (at which point tumors were over 200 mm^3 in volume), administration of carboplatin or Compound 14 was initiated. One cohort of twelve mice received 20 mg/kg twice daily doses of Compound 14, one cohort of ten mice received 30 mg/kg twice daily doses of Compound 14, one cohort of seven mice received 25 mg/kg doses of carboplatin every three days, one cohort of seven mice received 40 mg/kg once daily doses of Compound 14, and the remaining ten mice were treated with vehicle. Treatment and monitoring was continued until day 72 post inoculation of tumor cells (32 days of treatment).

[2] = tested on: MIA PaCa-2 cells; experiment: MIA PaCa-2 xenografts, ULK inhibitor alone versus gemcitabine; conditions: day 42, Compound 14 20 mg/kg twice daily, gemcitabine dose not given
Description: MIA PaCa-2 cells were injected bilaterally into the flanks of nude mice to create tumor xenografts in order to assess the efficacy of Compound 14 in treating pancreatic cancer tumors compared to gemcitabine, a current standard of care therapy for pancreatic cancer. After 3 days of letting tumor cells proliferate (at which point tumors were ˜100 mm^3 in volume), administration of gemcitabine or Compound 14 was initiated. One cohort received 20 mg/kg twice daily doses of Compound 14, one cohort received gemcitabine, and the remaining cohort was treated with vehicle. Treatment and monitoring were continued until day 42 post inoculation of tumor cells (30 days of treatment).

[3] = tested on: MIA PaCa-2 cells; experiment: MIA PaCa-2 xenografts, ULK inhibitor alone and in combination with trametinib; conditions: day 25
Description: MIA PaCa-2 cells were injected bilaterally into the flanks nude mice to create tumor xenografts in order to assess the efficacy of Compound 14 in treating pancreatic cancer tumors alone and in combination with trametinib, an MEK inhibitor and current standard of care therapy for the treatment of pancreatic cancer. After letting tumor cells proliferate to the point where tumors had reach ˜300 mm^3 in volume, one cohort of mice was administered 20 mg/kg daily doses of Compound 14, one cohort of mice was administered 30 mg/kg daily doses of Compound 14, one cohort of mice was administered 1 mg/kg daily doses of trametinib, one cohort of mice was administered 1 mg/kg daily doses of trametinib in combination with 20 mg/kg daily doses of Compound 14, one cohort of mice was administered 1 mg/kg daily doses of trametinib in combination with 30 mg/kg daily doses of Compound 14, and the remaining cohort of mice was administered vehicle alone. Treatment and monitoring were continued for 25 days.

CNC(=O)c1ccccc1Nc1nc(Nc2cc(OC)c(OC)c(OC)c2)ncc1Br [Compound 14]
tumor growth compared with the start of treatment [1]: little to no growth, or even a decrease in tumor volume | final tumor volume [2]: ~800 mm^3 | final tumor size (average) ([3]; 20 mg/kg daily alone): ~1000 mm^3 | average tumor mass at the end of the study ([3]; both combinations: trametinib 1 mg/kg daily with Compound 14 20 or 30 mg/kg daily): substantially less tumor mass compared to control and each mono-therapy
